Source: the supplement of paper PMC10307832

Columns and labels:
Test in all cases: relative viability (nuclei count vs DMSO), 5 days (fraction); higher = more cells survive
Carboplatin + OSI-027 = compound: C1CC(C1)(C(=O)O)C(=O)O.[NH2-].[NH2-].[Pt+2] [Carboplatin] + COc1cccc2cc(-c3nc([C@H]4CC[C@H](C(=O)O)CC4)n4ncnc(N)c34)[nH]c12 [OSI-027] (partner 0.5 µM)
Outline: (§1)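 Values are medians from duplicate plates. Each reflects relative viability, defined as the nuclei count of treated wells over that of vehicle wells. Lung cancer cell lines in 1536-well plates were pin-tool dosed one day after seeding with one drug alone or with a fixed anchor-drug dose plus five library-drug doses (not always all listed) in √10 steps, then fixed, stained and imaged at 4× after 5 days.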

Carboplatin + Vorinostat = compound: C1CC(C1)(C(=O)O)C(=O)O.[NH2-].[NH2-].[Pt+2] [Carboplatin] + O=C(CCCCCCC(=O)Nc1ccccc1)NO [Vorinostat] (partner 1 µM)
Outline: as §1

GSK126 + OSI-027 = compound: CC[C@H](C)N1C=C(C2=C(C=C(C=C21)C3=CN=C(C=C3)N4CCNCC4)C(=O)NCC5=C(C=C(NC5=O)C)C)C [GSK126] + COc1cccc2cc(-c3nc([C@H]4CC[C@H](C(=O)O)CC4)n4ncnc(N)c34)[nH]c12 [OSI-027] (partner 0.5 µM)
Outline: as §1

MLN4924 + Alpelisib = compound: NS(=O)(=O)OC[C@@H]1C[C@@H](n2ccc3c(N[C@H]4CCc5ccccc54)ncnc32)C[C@@H]1O [MLN4924] + Cc1nc(NC(=O)N2CCC[C@H]2C(N)=O)sc1-c1ccnc(C(C)(C)C(F)(F)F)c1 [Alpelisib] (partner 2 µM)
Outline: as §1

| Cell Line | relative viability (Carboplatin + OSI-027; first compound 0.08 µM) | relative viability (Carboplatin + OSI-027; first compound 0.253 µM) | relative viability (Carboplatin + OSI-027; first compound 0.8 µM) | relative viability (Carboplatin + OSI-027; first compound 2.53 µM) | relative viability (Carboplatin + OSI-027; first compound 8 µM) | relative viability (Carboplatin + Vorinostat; first compound 0.08 µM) | relative viability (Carboplatin + Vorinostat; first compound 0.253 µM) | relative viability (Carboplatin + Vorinostat; first compound 0.8 µM) | relative viability (Carboplatin + Vorinostat; first compound 2.53 µM) | relative viability (Carboplatin + Vorinostat; first compound 8 µM) | relative viability (GSK126 + OSI-027; first compound 0.08 µM) | relative viability (GSK126 + OSI-027; first compound 0.253 µM) | relative viability (GSK126 + OSI-027; first compound 0.8 µM) | relative viability (GSK126 + OSI-027; first compound 2.53 µM) | relative viability (GSK126 + OSI-027; first compound 8 µM) | relative viability (MLN4924 + Alpelisib; first compound 0.04 µM) | relative viability (MLN4924 + Alpelisib; first compound 0.1265 µM) | relative viability (MLN4924 + Alpelisib; first compound 0.4 µM) | relative viability (MLN4924 + Alpelisib; first compound 1.265 µM) | relative viability (MLN4924 + Alpelisib; first compound 4 µM) |
| --- | --- | --- | --- | --- | --- | --- | --- | --- | --- | --- | --- | --- | --- | --- | --- | --- | --- | --- | --- | --- |
| NCI-H661 | 0.758 | 0.824 | 0.66 | 0.578 | 0.478 | 0.82 | 0.785 | 0.733 | 0.777 | 0.622 | 0.769 | 0.737 | 0.762 | 0.746 | 0.74 | 0.664 | 0.887 | 0.502 | 0.231 | 0.351 |
| NCI-H727 | 0.732 | 0.547 | 0.555 | 0.617 | 0.551 | 1.38 | 1.15 | 1.17 | 1.03 | 0.831 | 0.653 | 0.686 | 0.599 | 0.603 | 0.627 | 0.474 | 0.292 | 0.245 | 0.194 | 0.213 |
| NCI-H1734 | 0.707 | 0.674 | 0.63 | 0.528 | 0.572 | 0.823 | 0.83 | 0.78 | 0.779 | 0.545 | 0.681 | 0.532 | 0.665 | 0.579 | 0.602 | 0.947 | 0.95 | 0.246 | 0.139 | 0.118 |
| EMC-BAC-2 | 0.423 | 0.372 | 0.364 | 0.374 | 0.375 | 0.664 | 0.416 | 0.616 | 0.536 | 0.331 | 0.398 | 0.381 | 0.397 | 0.379 | 0.373 | 0.806 | 0.326 | 0.194 | 0.15 | 0.14 |
